According to patent US20080161232A1, “C5a Receptor Antagonist” (JERINI AG, priority 2005, published 2008):
pIC50: −log10 of the molar value. Read-outs that look alike come from different tables or passages of the source. Starred links: 1 amine or outer side, 2 acyl side, 3 side chain; linkers in the order of their positions; H or OH if unused. Positions of bridges follow the written chain, without caps; N, C: chain ends. Non-standard residues stand in square brackets, D forms with d. Residues, ends and D or L forms follow the SMILES beside them. ξ: configuration not given here. *: point of attachment. Phe(3,4-F2) = N[C@@H](Cc1ccc(F)c(F)c1)C(=O)O; Decanoyl(3,6,9-trioxa) = COCCOCCOCC(=O)*; Phe(3-Cl) = N[C@@H](Cc1cccc(Cl)c1)C(=O)O; Phe(3-Me) = Cc1cccc(C[C@H](N)C(=O)O)c1; Phe(4-F) = N[C@@H](Cc1ccc(F)cc1)C(=O)O; 1Nal = N[C@@H](Cc1cccc2ccccc12)C(=O)O; His(τ-Me) = Cn1cnc(C[C@H](N)C(=O)O)c1; Acetyl(4-pyridyl) = O=C(Cc1ccncc1)*; Bta = N[C@@H](Cc1csc2ccccc12)C(=O)O; NEtPhe = CCN[C@@H](Cc1ccccc1)C(=O)O; Hyp = O=C(O)[C@@H]1C[C@@H](O)CN1; d(hLeu) = CC(C)CC[C@@H](N)C(=O)O; ξNip = O=C(C1CCCN([*:1])C1)[*:2]; Cha = N[C@@H](CC1CCCCC1)C(=O)O; Cit = NC(=O)NCCC[C@H](N)C(=O)O; dCha = N[C@H](CC1CCCCC1)C(=O)O; Pip = O=C(O)[C@@H]1CCCCN1; Nle = CCCC[C@H](N)C(=O)O; Orn = NCCC[C@H](N)C(=O)O; Aze = O=C(O)[C@@H]1CCN1; Dab = NCC[C@H](N)C(=O)O; Fluoroacetyl = O=C(CF)*; X13 = c1ccc2c(c1)nnn2C*; Dap = NC[C@H](N)C(=O)O; NBuGly = CCCCNCC(=O)O; tBu = CC(C)(C)*

Target: T1, human C5aR(CD88) (Homo sapiens, UniProt P21730)
T1 construct: expressed in transfected cells; host or cells: rat basophilic leukemia cells (RBL)
T1 sequence (P21730 1-350): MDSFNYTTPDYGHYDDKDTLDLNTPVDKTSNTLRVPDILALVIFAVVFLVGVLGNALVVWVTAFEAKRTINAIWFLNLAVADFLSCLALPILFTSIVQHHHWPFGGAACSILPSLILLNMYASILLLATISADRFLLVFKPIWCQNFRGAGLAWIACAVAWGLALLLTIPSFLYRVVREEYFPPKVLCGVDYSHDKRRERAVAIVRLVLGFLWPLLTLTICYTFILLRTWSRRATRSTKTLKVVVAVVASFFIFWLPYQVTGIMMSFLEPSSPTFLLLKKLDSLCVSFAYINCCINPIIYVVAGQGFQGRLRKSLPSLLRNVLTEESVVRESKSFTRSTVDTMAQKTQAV
Test: Determination of the IC50 value in an enzyme release assay (functional assay, antagonistic activity)
Format: cell-based

[1] = antagonistic activity, IC50 group in enzyme release assay, RBL cells expressing human C5aR(CD88), read-out: activity (group)

Structure (SMILES)	pIC50 [1]	other results
CC(=O)N[C@@H](Cc1ccccc1)C(=O)N[C@@H](CCCN)C(=O)N1CCC[C@H]1C(=O)N[C@H](CCC(C)C)C(=O)N[C@@H](Cc1ccc(F)c(F)c1)C(=O)N[C@@H](Cc1ccccc1)C(N)=O [Compound 283, Ac-Phe-Orn-Pro-hle-Dff-Phe-NH2] (Ac-F[Orn]P[d(hLeu)][Phe(3,4-F2)]F-NH2)	6.70 to 7.30	–
NCCC[C@H](NC(=O)[C@H](Cc1ccccc1)NC(=O)CF)C(=O)N1CC[C@H]1C(=O)N[C@H](CC1CCCCC1)C(=O)N[C@@H](Cc1csc2ccccc12)C(=O)N[C@@H](Cc1ccccc1)C(N)=O [Compound 321, FAc-Phe-Orn-Aze-cha-Bta-Phe-NH2] (Fluoroacetyl-F[Orn][Aze][dCha][Bta]F-NH2)	–	pIC50 (activity (group), antagonistic activity, IC50 group in enzyme release assay, RBL cells expressing human C5aR(CD88)): 7.30 to 7.70
CCCC[C@@H]1NC(=O)[C@H](Cc2c[nH]c3ccccc23)NC(=O)[C@@H](CC2CCCCC2)NC(=O)[C@@H]2C[C@@H](OC(=O)COCCOCCOC)CN2C(=O)[C@@H](NC(=O)[C@H](Cc2ccccc2)NC(C)=O)CCCNC1=O [Compound 5, Ac-Phe-[Orn-Hyp(COCH2OCH2CH2OCH2CH2OCH3)-cha-Trp-Nle]] (Ac-F[Orn][Hyp](Decanoyl(3,6,9-trioxa))[dCha]W[Nle]; lactam 2-C)	6.70 to 7.30	–
CC(=O)N[C@@H](Cc1ccccc1)C(=O)N[C@@H](CCCN)C(=O)N1CCCC[C@H]1C(=O)N[C@H](CC1CCCCC1)C(=O)N[C@@H](Cc1c[nH]c2ccccc12)C(=O)N[C@@H](Cc1ccccc1)C(N)=O [Compound 92, Ac-Phe-Orn-Pip-cha-Trp-Phe-NH2] (Ac-F[Orn][Pip][dCha]WF-NH2)	6.70 to 7.30	–
CC(=O)N[C@@H](Cc1ccccc1)C(=O)N[C@@H](CCCCN)C(=O)N[C@@H](C)C(=O)N[C@@H](CC1CCCCC1)C(=O)N[C@@H](C)C(=O)N[C@@H](CC(C)C)C(=O)N[C@H](C)C(=O)N[C@@H](Cc1ccc(O)cc1)C(=O)O [Ac-Phe-Lys-Ala-Cha-Ala-Leu-ala-Tyr-OH, reference compound] (Ac-FKA[Cha]AL[dA]Y-OH)	–	pIC50 (functional assay as used in this application, values in text, read-out: IC50): 5.89
CC(=O)N[C@@H](Cc1ccccc1)C(=O)N[C@H]1CCCNC(=O)[C@H](Cc2cn(C)cn2)NC(=O)[C@H](Cc2c[nH]c3ccccc23)NC(=O)[C@@H](CC2CCCCC2)NC(=O)[C@@H]2CCCN2C1=O [Compound 20, Ac-Phe-[Orn-Pro-cha-Trp-Ecr]] (Ac-F[Orn]P[dCha]W[His(τ-Me)]; lactam 2-C)	6.70 to 7.30	inhibitory activity (in words) (functional assay of example 11, noteworthy = IC50 less than 200 nM): noteworthy inhibitory activity
CCCC[C@@H]1NC(=O)[C@H](Cc2c[nH]c3ccccc23)NC(=O)[C@H](Cc2cccc(C)c2)NC(=O)[C@@H]2C[C@@H](O)CN2C(=O)[C@@H](NC(=O)[C@H](Cc2ccccc2)NC(C)=O)CCCNC1=O [Compound 182, Ac-Phe-[Orn-Hyp-Mmf-Trp-Nle]] (Ac-F[Orn][Hyp][Phe(3-Me)]W[Nle]; lactam 2-C)	6.70 to 7.30	–
CC(=O)N[C@@H](Cc1ccccc1)C(=O)N[C@@H](CCCN)C(=O)N1CCC[C@H]1C(=O)N[C@H](CSC(C)(C)C)C(=O)N[C@@H](Cc1cccc(Cl)c1)C(=O)N[C@@H](Cc1ccccc1)C(N)=O [Compound 265, Ac-Phe-Orn-Pro-ctb-Mcf-Phe-NH2] (Ac-F[Orn]P[dC](tBu)[Phe(3-Cl)]F-NH2)	6.70 to 7.30	–
CC(=O)N[C@@H](Cc1ccccc1)C(=O)N[C@@H](CCCN)C(=O)N1CCC[C@H]1C(=O)N[C@H](CC1CCCCC1)C(=O)N[C@@H](Cc1csc2ccccc12)C(=O)N[C@@H](Cc1cccc2ccccc12)C(N)=O [Compound 249, Ac-Phe-Orn-Pro-cha-Bta-1Ni—NH2] (Ac-F[Orn]P[dCha][Bta][1Nal]-NH2)	6.70 to 7.30	–
CC(=O)N[C@@H](Cc1ccccc1)C(=O)N[C@@H](CCCN)C(=O)N1CCC[C@H]1C(=O)N[C@H](CC1CCCCC1)C(=O)N[C@@H](Cc1cccc2ccccc12)C(=O)N[C@@H](Cc1ccccc1)C(N)=O [Compound 248, Ac-Phe-Orn-Pro-cha-1Ni-Phe-NH2] (Ac-F[Orn]P[dCha][1Nal]F-NH2)	6.70 to 7.30	–
CC(C)CC[C@@H](NC(=O)[C@@H]1CCCN1C(=O)[C@H](CCCNC(N)=O)NC(=O)[C@H](Cc1ccccc1)NC(=O)C1CCCNC1)C(=O)N[C@@H](Cc1csc2ccccc12)C(=O)N[C@@H](Cc1ccccc1)C(N)=O (stereo partly drawn) [Compound 346, H-Nip-Phe-Cit-Pro-hle-Bta-Phe-NH2] (ξNip-F[Cit]P[d(hLeu)][Bta]F-NH2)	6.70 to 7.30	–
CC(C)CC[C@@H](NC(=O)[C@@H]1CCCN1C(=O)[C@H](CCCNC(N)=O)NC(=O)[C@@H](N)Cc1ccccc1)C(=O)N[C@@H](Cc1csc2ccccc12)C(=O)N[C@@H](Cc1ccccc1)C(N)=O [Compound 391, H-Phe-Cit-Pro-hle-Bta-Phe-NH2] (H-F[Cit]P[d(hLeu)][Bta]F-NH2)	6.70 to 7.30	–
CC(=O)N[C@@H](Cc1ccccc1)C(=O)N[C@@H](CN)C(=O)N1CCC[C@H]1C(=O)N[C@H](CC1CCCCC1)C(=O)N[C@@H](Cc1csc2ccccc12)C(=O)N[C@@H](Cc1ccccc1)C(N)=O [Compound 216, Ac-Phe-Dap-Pro-cha-Bta-Phe-NH2] (Ac-F[Dap]P[dCha][Bta]F-NH2)	6.70 to 7.30	–
CC(=O)N[C@@H](Cc1ccccc1)C(=O)N[C@H]1CCCNC(=O)[C@H](Cc2cccc3ccccc23)NC(=O)[C@H](Cc2c[nH]c3ccccc23)NC(=O)[C@@H](CC2CCCCC2)NC(=O)[C@@H]2CCCN2C1=O [Compound 58, Ac-Phe-[Orn-Pro-cha-Trp-1Ni]] (Ac-F[Orn]P[dCha]W[1Nal]; lactam 2-C)	7.30 to 7.70	–

Now from value to molecule, other results behind:

pIC50 [1]	Structure (SMILES)	other results
7.30 to 7.70	N[C@@H](Cc1ccccc1)C(=O)N[C@H]1CCCNC(=O)[C@H](Cc2ccccc2)NC(=O)[C@H](Cc2c[nH]c3ccccc23)NC(=O)[C@@H](CC2CCCCC2)NC(=O)[C@H](CO)NC1=O [Compound 383, H-Phe-[Orn-Ser-cha-Trp-Phe]] (H-F[Orn]S[dCha]WF; lactam 2-C)	–
6.70 to 7.30	CC(=O)N[C@@H](Cc1ccccc1)C(=O)N[C@@H](CSCn1nnc2ccccc21)C(=O)N1CCC[C@H]1C(=O)N[C@H](CC1CCCCC1)C(=O)N[C@@H](Cc1csc2ccccc12)C(=O)N[C@@H](Cc1ccccc1)C(N)=O [Compound 119, Ac-Phe-Eec-Pro-cha-Bta-Phe-NH2] (Ac-FC(X13)P[dCha][Bta]F-NH2)	–
6.70 to 7.30	CC(=O)N[C@@H](Cc1ccccc1)C(=O)N[C@@H](CCCN)C(=O)N1CCC[C@H]1C(=O)N[C@H](CC1CCCCC1)C(=O)N[C@@H](Cc1c[nH]c2ccccc12)C(=O)N[C@@H](CC1CCCCC1)C(N)=O [Compound 65, Ac-Phe-Orn-Pro-cha-Trp-Cha-NH2] (Ac-F[Orn]P[dCha]W[Cha]-NH2)	–
7.30 to 7.70	CC(=O)N[C@@H](Cc1ccccc1)C(=O)N[C@@H](CCN)C(=O)N1CC[C@H]1C(=O)N[C@H](CCC(C)C)C(=O)N[C@@H](Cc1csc2ccccc12)C(=O)N[C@@H](Cc1ccccc1)C(N)=O [Compound 214, Ac-Phe-Dab-Aze-hle-Bta-Phe-NH2] (Ac-F[Dab][Aze][d(hLeu)][Bta]F-NH2)	–
6.70 to 7.30	CC(=O)N[C@@H](Cc1ccccc1)C(=O)N[C@H]1CCCNC(=O)[C@H](Cc2ccccc2)NC(=O)[C@H](Cc2csc3ccccc23)NC(=O)[C@@H](CCC(C)C)NC(=O)[C@@H]2CCCCN2C1=O [Compound 185, Ac-Phe-[Orn-Pip-hle-Bta-Phe]] (Ac-F[Orn][Pip][d(hLeu)][Bta]F; lactam 2-C)	–
6.70 to 7.30	CCCC[C@@H]1NC(=O)[C@H](Cc2c[nH]c3ccccc23)NC(=O)[C@@H](CC2CCCCC2)NC(=O)[C@@H]2CCCN2C(=O)[C@@H](NC(=O)[C@H](Cc2ccccc2)NC(=O)Cc2ccncc2)CCCNC1=O [Compound 325, Fbi-Phe-[Orn-Pro-cha-Trp-Nle]] ({Acetyl(4-pyridyl)}-F[Orn]P[dCha]W[Nle]; lactam 2-C)	–
6.70 to 7.30	CC(C)CC[C@H]1NC(=O)[C@@H]2C[C@@H](O)CN2C(=O)[C@@H](NC(=O)[C@@H](N)Cc2ccccc2)CCCNC(=O)[C@H](CC(C)C)NC(=O)[C@H](Cc2cccc(Cl)c2)NC1=O [Compound 361, H-Phe-[Orn-Hyp-hle-Mcf-Leu]] (H-F[Orn][Hyp][d(hLeu)][Phe(3-Cl)]L; lactam 2-C)	–
5.70 to 6.70	CCCCN(CC(=O)N1CCC[C@H]1C(=O)N[C@H](CC1CCCCC1)C(=O)N[C@@H](Cc1c[nH]c2ccccc12)C(=O)N[C@@H](Cc1ccccc1)C(N)=O)C(=O)[C@H](Cc1ccccc1)NC(C)=O [Compound 148, Ac-Phe-N(nBu)-CH2—CO-Pro-cha-Trp-Phe-NH2] (Ac-F[NBuGly]P[dCha]WF-NH2)	–
6.70 to 7.30	CC(=O)N[C@@H](Cc1ccccc1)C(=O)N[C@H]1CCCNC(=O)[C@H](CC(C)C)NC(=O)[C@H](Cc2c[nH]c3ccccc23)NC(=O)[C@@H](CC2CCCCC2)NC(=O)[C@@H]2CCCN2C1=O [Compound 193, Ac-Phe-[Orn-Pro-cha-Trp-Leu]] (Ac-F[Orn]P[dCha]WL; lactam 2-C)	–
6.70 to 7.30	CC(=O)N[C@@H](Cc1ccccc1)C(=O)N[C@H]1CCCNC(=O)[C@H](CC2CCCCC2)NC(=O)[C@H](Cc2c[nH]c3ccccc23)NC(=O)[C@@H](CC2CCCCC2)NC(=O)[C@@H]2CCCN2C1=O [Compound 189, Ac-Phe-[Orn-Pro-cha-Trp-Cha]] (Ac-F[Orn]P[dCha]W[Cha]; lactam 2-C)	–
6.70 to 7.30	CC(=O)N[C@@H](Cc1ccccc1)C(=O)N[C@@H](CCCNC(=N)N)C(=O)N1CCC[C@H]1C(=O)N[C@H](CCC(C)C)C(=O)N[C@@H](Cc1csc2ccccc12)C(=O)N[C@@H](Cc1ccccc1)C(N)=O [Compound 207, Ac-Phe-Arg-Pro-hle-Bta-Phe-NH2] (Ac-FRP[d(hLeu)][Bta]F-NH2)	–
6.70 to 7.30	CCCC[C@@H]1NC(=O)[C@H](Cc2ccc(F)cc2)NC(=O)[C@@H](CCC(C)C)NC(=O)[C@@H]2CCCN2C(=O)[C@@H](NC(=O)[C@H](Cc2ccccc2)NCC)CCCNC1=O [Compound 319, Eth-Phe-[Orn-Pro-hle-Pff-Nle]] (H-[NEtPhe][Orn]P[d(hLeu)][Phe(4-F)][Nle]; lactam 2-C)	–
